Test results as given in ChEMBL document CHEMBL5649167, “The SUV4-20 inhibitor A-196 verifies a role for epigenetics in genomic integrity” (Nat Chem Biol, 2017).
Calls of active or inactive are those of the source. The rule behind the calls is not given here.

Legend:
Rattus norvegicus [1] = species on record: Rattus norvegicus; assay: Inhibition of Rat GABAA at 10 uM in the presence of 3H and BZP relative to control
B-cell = assay: Induction of DNA repair in mouse B cells assessed as inhibition in H4K20me2 level at 1 to 10 uM incubated for 96 hrs by western blot analysis; assay type: functional, cell-based; conditions: dose 1-10 µM
[2] = target: 5-hydroxytryptamine receptor 2A (Homo sapiens) (UniProt P28223); assay: Inhibition of human 5-HT2A at 10 uM relative to control
[3] = target: Muscarinic acetylcholine receptor M5 (Homo sapiens) (UniProt P08912); assay: Inhibition of human Muscarinic acetylcholine receptor M5 expressed in stable Cricetulus griseus CHO cells at 10 uM relative to control; assay type: cell-based
Embryonic stem cell = assay: Antiproliferative activity against mouse Embryonic stem cell assessed as reduction in H4K20me3 at 10 uM incubated for 3 days by immunofluorescence analysis; assay type: functional, cell-based; conditions: time 3.0 day
[4] = target: Alpha-1B adrenergic receptor (Homo sapiens) (UniProt P35368); assay: Inhibition of human Alpha-1B adrenergic receptor expressed in HEK293T cells at 10 uM relative to control; assay type: cell-based
[5] = target: Substance-K receptor (Homo sapiens) (UniProt P21452); assay: Inhibition of human Substance-K receptor at 10 uM relative to control
[6] = target: 5-hydroxytryptamine receptor 5A (Homo sapiens) (UniProt P47898); assay: Inhibition of human 5-HT5a at 10 uM relative to control
[7] = target: Cholecystokinin receptor type A (Homo sapiens) (UniProt P32238); assay: Inhibition of human CCK1 at 10 uM relative to control
Homo sapiens [8] = species on record: Homo sapiens; assay: Inhibition of human SKCa channel at 10 uM relative to control
[9] = target: T1, 5-hydroxytryptamine receptor 1A (Homo sapiens) (UniProt P08908); assay: Inhibition of human 5-HT1A at 10 uM relative to control
T1 sequence (whole entry): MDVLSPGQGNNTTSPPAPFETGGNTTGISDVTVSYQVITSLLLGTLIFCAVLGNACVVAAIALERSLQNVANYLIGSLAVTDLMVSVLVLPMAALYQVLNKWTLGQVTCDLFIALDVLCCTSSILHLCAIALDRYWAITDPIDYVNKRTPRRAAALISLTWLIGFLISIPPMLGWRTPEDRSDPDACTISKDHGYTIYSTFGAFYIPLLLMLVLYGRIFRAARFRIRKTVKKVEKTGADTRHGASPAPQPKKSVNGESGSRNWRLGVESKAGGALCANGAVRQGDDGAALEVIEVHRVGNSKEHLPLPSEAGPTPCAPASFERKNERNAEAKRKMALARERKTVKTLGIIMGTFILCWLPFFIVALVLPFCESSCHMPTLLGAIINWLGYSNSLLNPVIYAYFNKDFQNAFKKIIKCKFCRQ

[10] = target: Sigma intracellular receptor 2 (Homo sapiens) (UniProt Q5BJF2); assay: Inhibition of human Sigma intracellular receptor 2 at 10 uM relative to control; assay type: cell-based
[11] = target: Histamine H1 receptor (Homo sapiens) (UniProt P35367); assay: Inhibition of human histamine H1 receptor expressed in stable HEK cells at 10 uM relative to control; assay type: cell-based
[12] = target: Beta-3 adrenergic receptor (Homo sapiens) (UniProt P13945); assay: Inhibition of human Beta-3 adrenergic receptor expressed in human Flp-In-293 cells at 10 uM relative to control; assay type: cell-based
[13] = target: 5-hydroxytryptamine receptor 2B (Homo sapiens) (UniProt P41595); assay: Inhibition of human 5-hydroxytryptamine receptor 2B at 10 uM relative to control
[14] = target: Sodium-dependent serotonin transporter (Homo sapiens) (UniProt P31645); assay: Inhibition of human 5-HT transporter at 10 uM relative to control
[15] = target: D(1A) dopamine receptor (Homo sapiens) (UniProt P21728); assay: Inhibition of human D(1A) dopamine receptor at 10 uM relative to control
[16] = target: Galanin receptor type 2 (Homo sapiens) (UniProt O43603); assay: Inhibition of human GAL2 at 10 uM relative to control
[17] = target: Vasopressin V1a receptor (Homo sapiens) (UniProt P37288); assay: Inhibition of human AVPR V1a at 10 uM relative to control
[18] = target: Muscarinic acetylcholine receptor M4 (Homo sapiens) (UniProt P08173); assay: Inhibition of human Muscarinic acetylcholine receptor M4 expressed in stable Cricetulus griseus CHO cells at 10 uM relative to control; assay type: cell-based
Homo sapiens [19] = species on record: Homo sapiens; assay: Inhibition of human 5-HT3 at 10 uM relative to control
Rattus norvegicus [20] = species on record: Rattus norvegicus; assay: Inhibition of Rat alpha 1-Adrenoceptor at 10 uM relative to control
[21] = target: 5-hydroxytryptamine receptor 2C (Homo sapiens) (UniProt P28335); assay: Inhibition of human 5-HT2C receptor expressed in HEK293T cells at 10 uM relative to control; assay type: cell-based
[22] = target: 5-hydroxytryptamine receptor 2B (Homo sapiens) (UniProt P41595); assay: Inhibition of human 5-HT2B receptor expressed in stable HEK cells at 10 uM relative to control; assay type: cell-based
[23] = target: Muscarinic acetylcholine receptor M3 (Homo sapiens) (UniProt P20309); assay: Inhibition of human Muscarinic acetylcholine receptor M3 expressed in stable Cricetulus griseus CHO cells at 10 uM relative to control; assay type: cell-based
[24] = target: Delta-type opioid receptor (Homo sapiens) (UniProt P41143); assay: Inhibition of human Delta-type opioid receptor at 10 uM relative to control
Rattus norvegicus [25] = species on record: Rattus norvegicus; assay: Inhibition of Rat GABAA at 10 uM in the presence of PBR relative to control
[26] = target: T2, Muscarinic acetylcholine receptor M1 (Homo sapiens) (UniProt P11229); assay: Inhibition of human Muscarinic acetylcholine receptor M1 expressed in stable Cricetulus griseus CHO cells at 10 uM relative to control; assay type: cell-based
T2 sequence (whole entry): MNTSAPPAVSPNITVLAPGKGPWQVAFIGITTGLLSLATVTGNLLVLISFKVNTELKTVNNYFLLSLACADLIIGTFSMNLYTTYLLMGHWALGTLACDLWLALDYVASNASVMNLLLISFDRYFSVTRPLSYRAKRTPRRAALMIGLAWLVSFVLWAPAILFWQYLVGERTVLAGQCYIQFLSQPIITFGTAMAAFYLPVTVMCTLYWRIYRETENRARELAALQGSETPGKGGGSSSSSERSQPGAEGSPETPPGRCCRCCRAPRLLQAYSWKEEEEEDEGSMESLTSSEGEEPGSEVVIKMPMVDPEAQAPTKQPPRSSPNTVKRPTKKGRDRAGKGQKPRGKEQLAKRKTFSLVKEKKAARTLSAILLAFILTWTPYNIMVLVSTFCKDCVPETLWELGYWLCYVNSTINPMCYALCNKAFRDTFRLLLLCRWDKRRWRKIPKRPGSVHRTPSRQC

[27] = target: 5-hydroxytryptamine receptor 7 (Homo sapiens) (UniProt P34969); assay: Inhibition of human 5-HT7 at 10 uM relative to control
[28] = target: Mu-type opioid receptor (Homo sapiens) (UniProt P35372); assay: Inhibition of human Mu-type opioid receptor expressed in stable HEK cells at 10 uM relative to control; assay type: cell-based

Sequence of 5-hydroxytryptamine receptor 2B (Homo sapiens) (P41595 whole entry): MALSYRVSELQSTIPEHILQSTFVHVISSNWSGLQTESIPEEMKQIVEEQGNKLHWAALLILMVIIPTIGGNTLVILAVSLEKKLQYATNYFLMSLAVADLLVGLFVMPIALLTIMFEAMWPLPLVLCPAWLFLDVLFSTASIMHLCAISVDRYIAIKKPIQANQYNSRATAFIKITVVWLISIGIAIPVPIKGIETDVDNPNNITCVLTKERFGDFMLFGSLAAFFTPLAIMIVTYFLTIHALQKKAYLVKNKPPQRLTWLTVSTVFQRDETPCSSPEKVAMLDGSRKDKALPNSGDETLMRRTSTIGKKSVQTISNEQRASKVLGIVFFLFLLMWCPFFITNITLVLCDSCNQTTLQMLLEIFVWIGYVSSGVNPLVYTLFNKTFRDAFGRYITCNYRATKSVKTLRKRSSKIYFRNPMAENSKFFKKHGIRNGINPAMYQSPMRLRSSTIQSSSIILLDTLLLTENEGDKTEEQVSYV
Sequence of 5-hydroxytryptamine receptor 7 (Homo sapiens) (P34969 whole entry): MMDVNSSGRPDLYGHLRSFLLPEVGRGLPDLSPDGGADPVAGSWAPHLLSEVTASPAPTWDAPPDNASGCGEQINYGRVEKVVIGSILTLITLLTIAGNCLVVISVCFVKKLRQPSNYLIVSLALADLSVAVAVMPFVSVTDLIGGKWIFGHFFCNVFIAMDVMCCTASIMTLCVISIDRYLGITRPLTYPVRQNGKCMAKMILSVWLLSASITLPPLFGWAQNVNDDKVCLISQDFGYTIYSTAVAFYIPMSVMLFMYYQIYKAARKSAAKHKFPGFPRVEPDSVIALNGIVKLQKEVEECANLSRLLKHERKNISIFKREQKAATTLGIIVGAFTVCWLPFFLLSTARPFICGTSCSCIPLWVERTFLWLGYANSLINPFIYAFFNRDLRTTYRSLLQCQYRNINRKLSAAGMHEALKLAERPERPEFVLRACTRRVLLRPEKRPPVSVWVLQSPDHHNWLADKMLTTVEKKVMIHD
Sequence of Muscarinic acetylcholine receptor M3 (Homo sapiens) (P20309 whole entry, looked up): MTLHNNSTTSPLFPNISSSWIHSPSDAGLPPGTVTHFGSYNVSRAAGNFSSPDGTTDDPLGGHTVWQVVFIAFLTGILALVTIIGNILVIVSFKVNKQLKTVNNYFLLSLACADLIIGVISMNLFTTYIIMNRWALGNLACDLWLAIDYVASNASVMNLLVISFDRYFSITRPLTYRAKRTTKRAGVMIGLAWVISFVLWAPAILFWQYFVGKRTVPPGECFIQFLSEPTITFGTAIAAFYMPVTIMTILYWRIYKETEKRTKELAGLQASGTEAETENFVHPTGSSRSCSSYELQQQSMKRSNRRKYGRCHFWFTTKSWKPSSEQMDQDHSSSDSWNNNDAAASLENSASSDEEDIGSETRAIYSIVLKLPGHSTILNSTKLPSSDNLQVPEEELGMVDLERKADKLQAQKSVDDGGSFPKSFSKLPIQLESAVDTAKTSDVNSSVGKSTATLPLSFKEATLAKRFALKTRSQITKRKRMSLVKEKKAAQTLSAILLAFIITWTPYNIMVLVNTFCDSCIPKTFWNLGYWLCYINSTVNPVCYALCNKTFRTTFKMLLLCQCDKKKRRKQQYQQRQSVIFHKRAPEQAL
Sequence of Cholecystokinin receptor type A (Homo sapiens) (P32238 whole entry): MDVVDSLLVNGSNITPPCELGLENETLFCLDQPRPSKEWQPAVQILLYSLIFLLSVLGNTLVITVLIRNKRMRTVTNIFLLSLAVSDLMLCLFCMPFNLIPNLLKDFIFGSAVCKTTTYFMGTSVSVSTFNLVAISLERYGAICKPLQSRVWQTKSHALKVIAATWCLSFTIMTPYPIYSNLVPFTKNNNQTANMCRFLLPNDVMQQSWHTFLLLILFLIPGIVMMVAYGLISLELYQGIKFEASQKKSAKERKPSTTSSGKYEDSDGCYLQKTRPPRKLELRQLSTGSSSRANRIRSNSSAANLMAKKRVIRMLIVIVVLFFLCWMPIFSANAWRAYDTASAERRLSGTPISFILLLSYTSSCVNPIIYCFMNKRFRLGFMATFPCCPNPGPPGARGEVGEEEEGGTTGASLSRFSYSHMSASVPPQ
Sequence of Sigma intracellular receptor 2 (Homo sapiens) (Q5BJF2 whole entry): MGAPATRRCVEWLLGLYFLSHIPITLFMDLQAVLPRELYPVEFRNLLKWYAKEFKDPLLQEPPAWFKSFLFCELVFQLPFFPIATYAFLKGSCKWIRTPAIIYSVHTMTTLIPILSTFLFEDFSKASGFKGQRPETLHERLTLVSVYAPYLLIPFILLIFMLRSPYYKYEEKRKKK
Sequence of Histamine H1 receptor (Homo sapiens) (P35367 whole entry): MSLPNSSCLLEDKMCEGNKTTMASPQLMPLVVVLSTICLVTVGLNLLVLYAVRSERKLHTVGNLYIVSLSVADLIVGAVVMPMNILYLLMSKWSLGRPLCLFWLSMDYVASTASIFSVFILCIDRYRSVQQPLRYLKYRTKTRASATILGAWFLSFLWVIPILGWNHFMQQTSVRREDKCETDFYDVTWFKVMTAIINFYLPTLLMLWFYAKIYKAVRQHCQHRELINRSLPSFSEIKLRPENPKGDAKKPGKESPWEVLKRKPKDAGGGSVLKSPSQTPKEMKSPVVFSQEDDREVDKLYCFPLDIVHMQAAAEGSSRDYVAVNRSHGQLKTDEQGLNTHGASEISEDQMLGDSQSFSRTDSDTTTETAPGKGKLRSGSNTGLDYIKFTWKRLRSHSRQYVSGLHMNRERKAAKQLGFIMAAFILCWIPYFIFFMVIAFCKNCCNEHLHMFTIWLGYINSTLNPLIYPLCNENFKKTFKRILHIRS
Sequence of D(1A) dopamine receptor (Homo sapiens) (P21728 whole entry): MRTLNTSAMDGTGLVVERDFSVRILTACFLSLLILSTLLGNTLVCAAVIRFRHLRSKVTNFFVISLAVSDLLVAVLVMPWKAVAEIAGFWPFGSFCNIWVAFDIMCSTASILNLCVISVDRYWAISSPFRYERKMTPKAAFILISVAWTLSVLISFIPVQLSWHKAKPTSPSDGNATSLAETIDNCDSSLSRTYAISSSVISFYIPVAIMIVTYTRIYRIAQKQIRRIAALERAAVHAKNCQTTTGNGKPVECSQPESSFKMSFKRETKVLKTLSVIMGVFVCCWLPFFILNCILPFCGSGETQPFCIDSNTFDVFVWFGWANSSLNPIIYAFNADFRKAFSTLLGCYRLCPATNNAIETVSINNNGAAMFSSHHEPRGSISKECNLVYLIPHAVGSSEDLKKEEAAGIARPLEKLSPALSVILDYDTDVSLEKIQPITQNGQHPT
Sequence of Vasopressin V1a receptor (Homo sapiens) (P37288 whole entry, looked up): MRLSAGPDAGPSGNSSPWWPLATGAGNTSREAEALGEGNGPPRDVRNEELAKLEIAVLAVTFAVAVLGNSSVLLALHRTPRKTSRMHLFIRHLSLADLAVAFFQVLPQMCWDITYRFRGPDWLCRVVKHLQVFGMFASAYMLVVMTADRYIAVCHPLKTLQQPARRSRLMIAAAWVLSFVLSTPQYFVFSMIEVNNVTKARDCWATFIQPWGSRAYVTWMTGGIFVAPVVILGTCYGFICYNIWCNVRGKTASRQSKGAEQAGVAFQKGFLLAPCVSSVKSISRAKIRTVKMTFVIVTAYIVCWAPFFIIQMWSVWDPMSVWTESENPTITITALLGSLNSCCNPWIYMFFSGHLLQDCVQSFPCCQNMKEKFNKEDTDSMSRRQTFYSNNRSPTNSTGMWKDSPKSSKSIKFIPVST
Sequence of Muscarinic acetylcholine receptor M5 (Homo sapiens) (P08912 whole entry): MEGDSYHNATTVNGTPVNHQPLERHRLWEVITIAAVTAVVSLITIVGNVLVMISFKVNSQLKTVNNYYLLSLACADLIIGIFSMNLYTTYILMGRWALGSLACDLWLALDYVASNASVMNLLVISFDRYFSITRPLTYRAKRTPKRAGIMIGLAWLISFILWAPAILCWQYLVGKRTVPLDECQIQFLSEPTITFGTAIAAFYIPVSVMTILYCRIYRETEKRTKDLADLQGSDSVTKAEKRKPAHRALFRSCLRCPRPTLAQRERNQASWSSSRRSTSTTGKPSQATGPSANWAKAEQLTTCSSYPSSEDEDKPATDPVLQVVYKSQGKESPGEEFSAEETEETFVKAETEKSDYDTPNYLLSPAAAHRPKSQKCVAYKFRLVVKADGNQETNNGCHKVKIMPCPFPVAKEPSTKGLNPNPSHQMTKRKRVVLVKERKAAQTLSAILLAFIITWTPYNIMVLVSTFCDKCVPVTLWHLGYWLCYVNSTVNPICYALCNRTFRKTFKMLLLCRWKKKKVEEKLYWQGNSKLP
Sequence of Substance-K receptor (Homo sapiens) (P21452 whole entry): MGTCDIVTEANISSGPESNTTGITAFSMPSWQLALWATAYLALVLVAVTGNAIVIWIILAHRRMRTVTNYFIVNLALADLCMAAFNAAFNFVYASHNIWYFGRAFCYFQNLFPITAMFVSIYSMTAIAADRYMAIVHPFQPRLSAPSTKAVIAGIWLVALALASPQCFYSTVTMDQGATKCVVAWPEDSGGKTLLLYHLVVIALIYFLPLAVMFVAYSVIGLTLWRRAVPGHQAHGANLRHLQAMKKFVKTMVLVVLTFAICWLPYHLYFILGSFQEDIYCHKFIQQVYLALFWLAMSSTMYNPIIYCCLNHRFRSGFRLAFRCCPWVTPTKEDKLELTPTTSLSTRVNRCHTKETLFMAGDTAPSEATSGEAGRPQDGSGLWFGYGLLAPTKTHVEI
Sequence of 5-hydroxytryptamine receptor 2C (Homo sapiens) (P28335 whole entry): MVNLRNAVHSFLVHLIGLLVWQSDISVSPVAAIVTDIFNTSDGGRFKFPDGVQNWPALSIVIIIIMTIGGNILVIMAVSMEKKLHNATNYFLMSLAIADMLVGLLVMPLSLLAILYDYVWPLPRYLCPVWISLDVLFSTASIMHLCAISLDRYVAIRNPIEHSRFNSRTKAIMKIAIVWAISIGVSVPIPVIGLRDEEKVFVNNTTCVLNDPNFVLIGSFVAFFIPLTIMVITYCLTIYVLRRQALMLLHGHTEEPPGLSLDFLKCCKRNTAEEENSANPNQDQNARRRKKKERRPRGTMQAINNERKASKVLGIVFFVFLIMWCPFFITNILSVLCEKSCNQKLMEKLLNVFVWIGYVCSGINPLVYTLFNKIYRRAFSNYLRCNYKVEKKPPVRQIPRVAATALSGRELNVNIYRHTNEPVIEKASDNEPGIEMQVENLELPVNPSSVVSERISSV

| SMILES | inhibition (Rattus norvegicus [1]) [%] | inhibition (B-cell) | inhibition [2] [%] | inhibition [3] [%] | Activity (Embryonic stem cell) | inhibition [4] [%] | inhibition [5] [%] | inhibition [6] [%] | inhibition [7] [%] | inhibition (Homo sapiens [8]) [%] | inhibition [9] [%] | inhibition [10] [%] | inhibition [11] [%] | inhibition [12] [%] | inhibition [13] [%] | inhibition [14] [%] | inhibition [15] [%] | inhibition [16] [%] | inhibition [17] [%] | inhibition [18] [%] | other results |
| --- | --- | --- | --- | --- | --- | --- | --- | --- | --- | --- | --- | --- | --- | --- | --- | --- | --- | --- | --- | --- | --- |
| Clc1cc2c(NC3CCCC3)nnc(-c3ccncc3)c2cc1Cl | 5 | Active | -1 | -1 | Active | 1 | 61 | 9 | -2 | 3 | 5 | 1 | 17 | -9 | 27 | 5 | 15 | 3 | 4 | -3 | inhibition (Homo sapiens [19]): 4%; inhibition (Rattus norvegicus [20]): 5%; inhibition [21]: 8%; inhibition [22]: 16%; inhibition [23]: -8%; inhibition [24]: 51%; inhibition (Rattus norvegicus [25]): 1%; inhibition [26]: 4%; inhibition [27]: 6%; inhibition [28]: 11% |
| O=C(c1nnc(NC2CCCC2)c2cc(Cl)c(Cl)cc12)N1CCC(O)CC1 | 29 | inactive | -5 | -4 | inactive | -4 | 53 | 2 | 7 | -5 | -1 | -1 | 2 | -8 | 8 | -7 | -3 | -8 | 96 | -7 | inhibition (Homo sapiens [19]): 6%; inhibition (Rattus norvegicus [20]): 12%; inhibition [21]: 13%; inhibition [22]: 4%; inhibition [23]: -3%; inhibition [24]: 6%; inhibition (Rattus norvegicus [25]): 65%; inhibition [26]: -8%; inhibition [27]: -3%; inhibition [28]: 22% |
